Experiments:
Test in all cases: relative viability (nuclei count vs DMSO), 5 days (fraction); higher = more cells survive
[1] = compound: Nc1ncn([C@H]2C[C@H](O)[C@@H](CO)O2)c(=O)n1 [Decitabine] + COc1cccc2cc(-c3nc([C@H]4CC[C@H](C(=O)O)CC4)n4ncnc(N)c34)[nH]c12 [OSI-027] (partner 0.5 µM)
In short: (§1)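 Nuclei were stained with Hoechst during a one-step fixation (final 0.05% Triton X-100, 1% formaldehyde, 1 ug/ml Hoechst) carried out 5 days after dosing, then counted on 4× images. The cells, lung cancer lines in 1536-well plates, had been dosed by pin tool the day after seeding with one drug alone or a fixed anchor-drug dose plus five library-drug doses (not always all listed) in √10 steps. Relative viability is the nuclei count in treated wells divided by that in vehicle wells, and each value is the median of duplicate plates.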

[2] = compound: Nc1ncn([C@H]2C[C@H](O)[C@@H](CO)O2)c(=O)n1 [Decitabine] + O=C(CCCCCCC(=O)Nc1ccccc1)NO [Vorinostat] (partner 1 µM)
In short: as §1

[3] = compound: O=C(C[C@H]1NCCC[C@@H]1O)Cn1cnc2cc(Br)c(Cl)cc2c1=O (racemic) [Halofuginone] + O=C(CCCCCCC(=O)Nc1ccccc1)NO [Vorinostat] (partner 1 µM)
In short: as §1

[4] = compound: O=C(C[C@H]1NCCC[C@@H]1O)Cn1cnc2cc(Br)c(Cl)cc2c1=O (racemic) [Halofuginone] + NC(=O)Nc1cc(-c2cccc(F)c2)sc1C(=O)N[C@H]1CCCNC1 [AZD7762] (partner 0.2 µM)
In short: as §1

Cell Line | relative viability ([1]; first compound 0.04 µM) | relative viability ([1]; first compound 0.1265 µM) | relative viability ([1]; first compound 0.4 µM) | relative viability ([1]; first compound 1.265 µM) | relative viability ([1]; first compound 4 µM) | relative viability ([2]; first compound 0.04 µM) | relative viability ([2]; first compound 0.1265 µM) | relative viability ([2]; first compound 0.4 µM) | relative viability ([2]; first compound 1.265 µM) | relative viability ([2]; first compound 4 µM) | relative viability ([3]; first compound 0.001 µM) | relative viability ([3]; first compound 0.003162 µM) | relative viability ([3]; first compound 0.01 µM) | relative viability ([3]; first compound 0.03162 µM) | relative viability ([3]; first compound 0.1 µM) | relative viability ([4]; first compound 0.001 µM) | relative viability ([4]; first compound 0.003162 µM) | relative viability ([4]; first compound 0.01 µM) | relative viability ([4]; first compound 0.03162 µM) | relative viability ([4]; first compound 0.1 µM)
NCI-H2085 | 0.47 | 0.587 | 0.472 | 0.376 | 0.365 | 0.65 | 0.657 | 0.591 | 0.443 | 0.431 | 0.817 | 0.805 | 0.759 | 0.815 | 0.748 | 0.996 | 1.02 | 0.947 | 0.992 | 0.932
NCI-H2087 | 0.376 | 0.348 | 0.317 | 0.257 | 0.28 | 0.268 | 0.285 | 0.301 | 0.304 | 0.208 | 0.72 | 0.713 | 0.773 | 0.723 | 0.484 | 1.42 | 1.48 | 1.33 | 1.48 | 1.01
HCC-366 | 0.859 | 0.915 | 0.485 | 0.253 | 0.176 | 0.235 | 0.313 | 0.138 | 0.0554 | 0.0657 | 0.446 | 0.347 | 0.319 | 0.233 | 0.0907 | 0.282 | 0.321 | 0.323 | 0.336 | 0.317
NCI-H2126 | 0.659 | 0.67 | 0.489 | 0.465 | 0.44 | 0.675 | 0.678 | 0.477 | 0.488 | 0.386 | 0.903 | 0.762 | 0.784 | 0.74 | 0.562 | 1.02 | 0.976 | 1.01 | 0.889 | 0.995
